Measured values as given in patent US20080000489A1, “Method and preparation for binding aldehydes in saliva” (BIOHIT OYJ, priority 2000, published 2008).

Experiment: Salivary acetaldehyde in smokers sucking blinded L-cysteine tablets during cigarette smoking, gas chromatography
Assay type: in vivo, human
Details: for mean salivary acetaldehyde concentration immediately after smoking: five smokers, placebo 191.2±48.5 μM
Description: Five smokers (age 29±2.8) participated in the study, in which […] were smoked (wash-out periods between). During every cigarette smoking (in 5 min time) volunteers sucked blinded tablets containing placebo, 1.25 mg, 2.5 mg, 5 mg, 10 mg or 20 mg L-cysteine. Acetaldehyde was analysed from salivary samples gas chromatographically at 0, 5, 10, 20 min from the beginning of smoking.
The mean salivary acetaldehyde concentrations immediately after smoking were 191.2±48.5 μM, 0 μM, 0 μM, 0 μM with placebo, 5 mg, 10 mg and 20 mg L-cysteine tablets, respectively.

N[C@@H](CS)C(=O)O [L-cysteine]
amount of acetaldehyde compared to placebo (1.25 mg L-cysteine tablet): about to third compared to placebo | mean salivary acetaldehyde concentration immediately after smoking (5 mg L-cysteine tablet sucked during 5 min smoking): 0 µM | carcinogenic acetaldehyde in the saliva during smoking (5 mg of L-cysteine administered by melting-tablet): totally inactivates | mean salivary acetaldehyde concentration immediately after smoking (10 mg L-cysteine tablet sucked during 5 min smoking): 0 µM | mean salivary acetaldehyde concentration immediately after smoking (20 mg L-cysteine tablet sucked during 5 min smoking): 0 µM | tobacco-originated acetaldehyde from the saliva (L-cysteine tablets 5 mg, 10 and 20 mg, FIG. 4): totally eradicated
